Measured values from PubChem BioAssay (NCI).
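Five compound concentrations were applied to cells in 96-well plates for 48 hours; endpoints were derived by simple linear interpolation of the resulting dose-response curve. TGI denotes the concentration required for complete inhibition of growth.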

Tests used:
Assay in all cases: NCI-60 cell line screen, 48 h
SN12C renal = system: SN12C renal
MALME-3M melanoma = system: MALME-3M melanoma
CCRF-CEM leukemia = system: CCRF-CEM leukemia
HL-60(TB) leukemia = system: HL-60(TB) leukemia
SK-MEL-2 melanoma = system: SK-MEL-2 melanoma
NCI/ADR-RES ovarian = system: NCI/ADR-RES ovarian
TK-10 renal = system: TK-10 renal
HCT-116 colon = system: HCT-116 colon
NCI-H23 lung = system: NCI-H23 lung
M14 melanoma = system: M14 melanoma
OVCAR-5 ovarian = system: OVCAR-5 ovarian
BT-549 breast = system: BT-549 breast
NCI-H460 lung = system: NCI-H460 lung
U251 CNS = system: U251 CNS
SF-268 CNS = system: SF-268 CNS
UACC-62 melanoma = system: UACC-62 melanoma
IGROV1 ovarian = system: IGROV1 ovarian
EKVX NSCLC = system: EKVX NSCLC
HT29 colon = system: HT29 colon
HS 578T breast = system: HS 578T breast
MDA-MB-435 = system: MDA-MB-435
HOP-62 NSCLC = system: HOP-62 NSCLC
HCC-2998 colon = system: HCC-2998 colon
CAKI-1 renal = system: CAKI-1 renal
SK-OV-3 ovarian = system: SK-OV-3 ovarian
MDA-N = system: MDA-N
SNB-19 CNS = system: SNB-19 CNS
RXF 393 renal = system: RXF 393 renal
786-0 renal = system: 786-0 renal
SK-MEL-28 melanoma = system: SK-MEL-28 melanoma
A549 NSCLC = system: A549 NSCLC
PC-3 prostate = system: PC-3 prostate
NCI-H522 lung = system: NCI-H522 lung
MDA-MB-231 breast = system: MDA-MB-231 breast
KM12 colon = system: KM12 colon
OVCAR-8 ovarian = system: OVCAR-8 ovarian
UACC-257 melanoma = system: UACC-257 melanoma
T-47D breast = system: T-47D breast
SK-MEL-5 melanoma = system: SK-MEL-5 melanoma
ACHN renal = system: ACHN renal
DU-145 prostate = system: DU-145 prostate
HCT-15 colon = system: HCT-15 colon
SF-295 CNS = system: SF-295 CNS
NCI-H226 lung = system: NCI-H226 lung
UO-31 renal = system: UO-31 renal
OVCAR-4 ovarian = system: OVCAR-4 ovarian
A498 renal = system: A498 renal
RPMI-8226 leukemia = system: RPMI-8226 leukemia
SR leukemia = system: SR leukemia
MOLT-4 leukemia = system: MOLT-4 leukemia
SNB-75 CNS = system: SNB-75 CNS
MCF7 breast = system: MCF7 breast
OVCAR-3 ovarian = system: OVCAR-3 ovarian
LOX IMVI melanoma = system: LOX IMVI melanoma
HOP-92 NSCLC = system: HOP-92 NSCLC
COLO 205 colon = system: COLO 205 colon
SW-620 colon = system: SW-620 colon
K-562 leukemia = system: K-562 leukemia
SF-539 CNS = system: SF-539 CNS

Question: With `CC1=NN(c2ccc(S(=O)(=O)O)cc2)C2(C1)C(Cl)C(=O)N2c1nc2ccccc2s1` (centres undefined) as the molecule, how does the TGI (SN12C renal) read?
Answer: The TGI was greater than 100 µM.

Question: What about the TGI (MALME-3M melanoma) of the same molecule?
Answer: The TGI was greater than 100 µM.

Question: And the TGI (CCRF-CEM leukemia)?
Answer: The TGI was greater than 100 µM.

Question: What about the TGI (HL-60(TB) leukemia) of the same molecule?
Answer: The TGI was greater than 100 µM.

Question: And the TGI (SK-MEL-2 melanoma)?
Answer: Its TGI is greater than 100 µM.

Question: What about the TGI (NCI/ADR-RES ovarian) of the same molecule?
Answer: Its TGI is greater than 100 µM.

Question: What about the TGI (TK-10 renal) of the same molecule?
Answer: Its TGI is greater than 100 µM.

Question: And the TGI (HCT-116 colon)?
Answer: Its TGI is greater than 100 µM.

Question: What about the TGI (NCI-H23 lung) of the same molecule?
Answer: Its TGI is greater than 100 µM.

Question: What about the TGI (M14 melanoma) of the same molecule?
Answer: Its TGI is greater than 100 µM.

Question: What about the TGI (OVCAR-5 ovarian) of the same molecule?
Answer: Its TGI is greater than 100 µM.

Question: What about the TGI (BT-549 breast) of the same molecule?
Answer: Its TGI is greater than 100 µM.

Question: What about the TGI (NCI-H460 lung) of the same molecule?
Answer: Its TGI is greater than 100 µM.

Question: What about the TGI (U251 CNS) of the same molecule?
Answer: The TGI was greater than 100 µM.

Question: What about the TGI (SF-268 CNS) of the same molecule?
Answer: The TGI was greater than 100 µM.

Question: What about the TGI (UACC-62 melanoma) of the same molecule?
Answer: The TGI was greater than 100 µM.

Question: And the TGI (IGROV1 ovarian)?
Answer: Its TGI is greater than 100 µM.

Question: What about the TGI (EKVX NSCLC) of the same molecule?
Answer: The TGI was greater than 100 µM.

Question: And the TGI (HT29 colon)?
Answer: The TGI was greater than 100 µM.

Question: And the TGI (HS 578T breast)?
Answer: Its TGI is greater than 100 µM.

Question: What about the TGI (MDA-MB-435) of the same molecule?
Answer: The TGI was greater than 100 µM.

Question: And the TGI (HOP-62 NSCLC)?
Answer: The TGI was greater than 100 µM.

Question: And the TGI (HCC-2998 colon)?
Answer: The TGI was greater than 100000 nM.

Question: What about the TGI (CAKI-1 renal) of the same molecule?
Answer: Its TGI is greater than 100 µM.

Question: What about the TGI (SK-OV-3 ovarian) of the same molecule?
Answer: The TGI was greater than 100 µM.

Question: What about the TGI (MDA-N) of the same molecule?
Answer: The TGI was greater than 100 µM.

Question: What about the TGI (SNB-19 CNS) of the same molecule?
Answer: The TGI was greater than 100 µM.

Question: And the TGI (RXF 393 renal)?
Answer: The TGI was greater than 100 µM.

Question: And the TGI (786-0 renal)?
Answer: The TGI was greater than 100 µM.

Question: And the TGI (SK-MEL-28 melanoma)?
Answer: Its TGI is greater than 100 µM.

Question: What about the TGI (A549 NSCLC) of the same molecule?
Answer: Its TGI is greater than 100 µM.

Question: And the TGI (PC-3 prostate)?
Answer: The TGI was greater than 100 µM.

Question: And the TGI (NCI-H522 lung)?
Answer: Its TGI is greater than 100 µM.

Question: And the TGI (MDA-MB-231 breast)?
Answer: Its TGI is greater than 100 µM.

Question: And the TGI (KM12 colon)?
Answer: The TGI was greater than 100 µM.

Question: And the TGI (OVCAR-8 ovarian)?
Answer: The TGI was greater than 100 µM.

Question: And the TGI (UACC-257 melanoma)?
Answer: Its TGI is greater than 100 µM.

Question: And the TGI (T-47D breast)?
Answer: The TGI was greater than 100 µM.

Question: And the TGI (SK-MEL-5 melanoma)?
Answer: The TGI was greater than 100 µM.

Question: What about the TGI (ACHN renal) of the same molecule?
Answer: Its TGI is greater than 100 µM.

Question: And the TGI (DU-145 prostate)?
Answer: The TGI was greater than 100 µM.

Question: And the TGI (HCT-15 colon)?
Answer: Its TGI is greater than 100 µM.

Question: And the TGI (SF-295 CNS)?
Answer: The TGI was greater than 100 µM.

Question: And the TGI (NCI-H226 lung)?
Answer: The TGI was greater than 100 µM.

Question: What about the TGI (UO-31 renal) of the same molecule?
Answer: The TGI was greater than 100 µM.

Question: What about the TGI (OVCAR-4 ovarian) of the same molecule?
Answer: Its TGI is greater than 100 µM.

Question: And the TGI (A498 renal)?
Answer: The TGI was greater than 100 µM.

Question: And the TGI (RPMI-8226 leukemia)?
Answer: The TGI was greater than 100 µM.

Question: What about the TGI (SR leukemia) of the same molecule?
Answer: The TGI was greater than 100 µM.

Question: And the TGI (MOLT-4 leukemia)?
Answer: Its TGI is greater than 100 µM.

Question: What about the TGI (SNB-75 CNS) of the same molecule?
Answer: The TGI was greater than 100 µM.

Question: And the TGI (MCF7 breast)?
Answer: Its TGI is greater than 100 µM.

Question: What about the TGI (OVCAR-3 ovarian) of the same molecule?
Answer: Its TGI is greater than 100 µM.

Question: What about the TGI (LOX IMVI melanoma) of the same molecule?
Answer: The TGI was greater than 100 µM.

Question: What about the TGI (HOP-92 NSCLC) of the same molecule?
Answer: The TGI was greater than 100 µM.

Question: What about the TGI (COLO 205 colon) of the same molecule?
Answer: Its TGI is greater than 100 µM.

Question: What about the TGI (SW-620 colon) of the same molecule?
Answer: Its TGI is greater than 100 µM.

Question: What about the TGI (K-562 leukemia) of the same molecule?
Answer: Its TGI is greater than 100 µM.

Question: Which results are given for `Cc1c(C(=O)c2ccccc2)[n+](=O)c2cc(Cl)c(Cl)cc2n1[O-]`?
Answer: TGI (SN12C renal): 30.5 µM; TGI (CCRF-CEM leukemia): 71.5 µM; TGI (HL-60(TB) leukemia): 4.82 µM; TGI (SK-MEL-2 melanoma): 21.3 µM; TGI (NCI/ADR-RES ovarian): 38 µM; TGI (SF-539 CNS): 32.5 µM; TGI (TK-10 renal): 23.9 µM; TGI (HCT-116 colon): 26.3 µM; TGI (NCI-H23 lung): 11.6 µM; TGI (M14 melanoma): 7.7 µM; TGI (OVCAR-5 ovarian): 31.8 µM; TGI (BT-549 breast): 31.5 µM; TGI (NCI-H460 lung): 30.9 µM; TGI (U251 CNS): 29.9 µM; TGI (SF-268 CNS): 29.5 µM; TGI (UACC-62 melanoma): 25.1 µM; TGI (IGROV1 ovarian): 5.16 µM; TGI (EKVX NSCLC): 26.3 µM; TGI (HT29 colon): 28.7 µM; TGI (HS 578T breast): 31.2 µM; TGI (MDA-MB-435): 24.5 µM; TGI (HOP-62 NSCLC): 29.7 µM; TGI (HCC-2998 colon): 2900 nM; TGI (CAKI-1 renal): 14.1 µM; TGI (SK-OV-3 ovarian): 41.4 µM; TGI (MDA-N): 25.9 µM; TGI (SNB-19 CNS): 37.4 µM; TGI (RXF 393 renal): 19.2 µM; TGI (786-0 renal): 29.3 µM; TGI (SK-MEL-28 melanoma): 29.1 µM; TGI (A549 NSCLC): 27.5 µM; TGI (PC-3 prostate): 59.5 µM; TGI (MDA-MB-231 breast): 25.9 µM; TGI (KM12 colon): 23 µM; TGI (OVCAR-8 ovarian): 23.2 µM; TGI (UACC-257 melanoma): 16.5 µM; TGI (T-47D breast): 14 µM; TGI (SK-MEL-5 melanoma): 28.6 µM; TGI (ACHN renal): 28.5 µM; TGI (DU-145 prostate): 31.5 µM; TGI (HCT-15 colon): 4.56 µM; TGI (SF-295 CNS): 28.7 µM; TGI (NCI-H226 lung): 7.59 µM; TGI (UO-31 renal): 26.1 µM; TGI (OVCAR-4 ovarian): 16.5 µM; TGI (A498 renal): 33.8 µM; TGI (RPMI-8226 leukemia): 19.8 µM; TGI (SR leukemia): 3.32 µM; TGI (MOLT-4 leukemia): 12.2 µM; TGI (SNB-75 CNS): 15.8 µM; TGI (MCF7 breast): 26.6 µM; TGI (OVCAR-3 ovarian): 25 µM; TGI (LOX IMVI melanoma): 15.8 µM; TGI (HOP-92 NSCLC): 15.2 µM; TGI (COLO 205 colon): 33.5 µM; TGI (K-562 leukemia): 17.8 µM
